Measurements as given in patent publication US20020137929A1, “1 - (3-heterocyclylphenyl) isothiourea, -isourea, -guanidine and -amidine herbicidal agents” (Intellectual Property Department, BASF Aktiengesellschaft, priority 1998, published 2002).

What was measured:
[1] = tested on: TRZAWR (Wheat, Winter, cv Riband); assay: Preemergence herbicidal evaluation; assay type: in vivo, Triticum aestivum; details: rated 4-5 weeks after treatment
Procedure, shortened: (§1)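 Test compound, dissolved in aqueous acetone, was sprayed over planted soil cups at an equivalent of about 0.0156 to 0.500 kg/ha; seeds had been mixed with potting soil. Greenhouse growth followed, with visual 0-9 scoring of injury at four to five weeks.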

ECHCG (Barnyardgrass) = assay: Preemergence herbicidal evaluation; assay type: in vivo, Echinochloa crus-galli; details: rated 4-5 weeks after treatment
Procedure, shortened: as §1

[2] = tested on: IPOHE (Morningglory, Ivyleaf); assay: Postemergence herbicidal evaluation; assay type: in vivo, Ipomoea hederacea; details: postemergence
Procedure, shortened: (§2)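 Visual 0–9 rating versus control (stand, vigor, malformation, size, chlorosis, overall appearance), taken four to five weeks post-spray. Two-week-old seedlings received roughly 0.0156–0.500 kg/ha active in acetone/water (50/50) with 0.5% TWEEN 20 via nozzle at 40 psi.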

ORYSAT (Rice, Tebonnet) = assay: Preemergence herbicidal evaluation; assay type: in vivo, Oryza sativa, (L.) Tebonnet; details: rated 4-5 weeks after treatment
Procedure, shortened: as §1

[3] = tested on: TRZAWR (Wheat, Winter, cv Riband); assay: Postemergence herbicidal evaluation; assay type: in vivo, Triticum aestivum; details: postemergence
Procedure, shortened: as §2

SETVI (Foxtail, Green) = assay: Preemergence herbicidal evaluation; assay type: in vivo, Setaria viridis; details: rated 4-5 weeks after treatment
Procedure, shortened: as §1

MOOVA (Monochoria) = assay: Preemergence weed control under flooded paddy conditions; assay type: in vivo, Monochoria vaginalis; details: rated 3-4 weeks after treatment
Procedure, shortened: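 Using flooded silt loam (water 1.5 to 3 cm deep), seeds sown in the top 0.5 cm were exposed preemergence to compound pipetted into the flood at about 0.0313 to 0.500 kg/ha. Effects were scored 0-9 by eye three to four weeks later.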

ABUTH (Velvetleaf) = assay: Postemergence herbicidal evaluation; assay type: in vivo, Abutilon theophrasti; details: postemergence
Procedure, shortened: as §2

[4] = tested on: CHEAL (Lambsquarters, Common); assay: Preemergence herbicidal evaluation; assay type: in vivo, Chenopodium album; details: rated 4-5 weeks after treatment
Procedure, shortened: as §1

[5] = tested on: ECHORC (Watergrass (Calif.)); assay: Preemergence weed control under flooded paddy conditions; assay type: in vivo, Echinochloa oryzoides; details: rated 3-4 weeks after treatment
Procedure, shortened: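 First, seeds or propagules go into the top 0.5 cm of silt loam; next, water is held 1.5 to 3 cm over the soil; then compound (50/50 acetone/water) is pipetted into it at about 0.0313 to 0.500 kg/ha; finally plants are rated visually 0-9 after three to four weeks.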

[6] = tested on: IPOHE (Morningglory, Ivyleaf); assay: Preemergence herbicidal evaluation; assay type: in vivo, Ipomoea hederacea; details: rated 4-5 weeks after treatment
Procedure, shortened: as §1

[7] = rate 0.0313 kg/ha, rating scale 0-9
[8] = rate 0.0625 kg/ha, rating scale 0-9
[9] = rate 0.1250 kg/ha, rating scale 0-9
[10] = rate 0.2500 kg/ha, rating scale 0-9

With `Cc1ccccc1CN1C(=O)CSC1=Nc1cc(-n2c(=O)cc(C(F)(F)F)n(C)c2=O)c(F)cc1Cl` [Compound 129, 3-{4-Chloro-2-fluoro-5-{[3-(o-methylbenzyl)-4-oxo-2-thiazolidinylidene]amino}phenyl}-1-methyl-6-(trifluoromethyl)-2,4 (1H,3H)-pyrimidinedione] the “Preemergence herbicidal rating TRZAWR” value ([1]; rate 0.0156 kg/ha) was 0.0, the “Preemergence herbicidal rating TRZAWR” value ([1]; rate 0.0313 kg/ha) was 0.0 and the “Preemergence herbicidal rating TRZAWR” value ([1]; rate 0.0625 kg/ha) was 0.0. For the same molecule, the “Preemergence herbicidal rating TRZAWR” value ([1]; rate 0.1250 kg/ha) was 1.0, the “Preemergence herbicidal rating TRZAWR” value ([1]; rate 0.2500 kg/ha) was 1.0 and the “Preemergence herbicidal rating ECHCG” value (ECHCG (Barnyardgrass); rate 0.0156 kg/ha) was 0.0. For the same molecule, the “Preemergence herbicidal rating ECHCG” value (ECHCG (Barnyardgrass); rate 0.0313 kg/ha) was 0.0, the “Preemergence herbicidal rating ECHCG” value (ECHCG (Barnyardgrass); rate 0.0625 kg/ha) was 0.0 and the “Preemergence herbicidal rating ECHCG” value (ECHCG (Barnyardgrass); rate 0.1250 kg/ha) was 1.0. The “Preemergence herbicidal rating ECHCG” value (ECHCG (Barnyardgrass); rate 0.2500 kg/ha) was 0.0, the “Herbicidal rating IPOHE” value ([2]; rate 0.0156 kg/ha) was 9.0 and the “Herbicidal rating IPOHE” value ([2]; rate 0.0313 kg/ha) was 9.0. For the same molecule, the “Herbicidal rating IPOHE” value ([2]; rate 0.0625 kg/ha) was 9.0, the “Preemergence herbicidal rating ORYSAT” value (ORYSAT (Rice, Tebonnet); rate 0.0156 kg/ha) was 0.0 and the “Preemergence herbicidal rating ORYSAT” value (ORYSAT (Rice, Tebonnet); rate 0.0313 kg/ha) was 0.0. The “Preemergence herbicidal rating ORYSAT” value (ORYSAT (Rice, Tebonnet); rate 0.0625 kg/ha) was 1.0, the “Preemergence herbicidal rating ORYSAT” value (ORYSAT (Rice, Tebonnet); rate 0.1250 kg/ha) was 1.0 and the “Preemergence herbicidal rating ORYSAT” value (ORYSAT (Rice, Tebonnet); rate 0.2500 kg/ha) was 3.0. The “Herbicidal rating TRZAWR” value ([3]; rate 0.0156 kg/ha) was 3.0, the “Herbicidal rating TRZAWR” value ([3]; rate 0.0313 kg/ha) was 3.5 and the “Herbicidal rating TRZAWR” value ([3]; rate 0.0625 kg/ha) was 3.5. For the same molecule, the “Preemergence herbicidal rating SETVI” value (SETVI (Foxtail, Green); rate 0.0156 kg/ha) was 1.0, the “Preemergence herbicidal rating SETVI” value (SETVI (Foxtail, Green); rate 0.0313 kg/ha) was 1.0 and the “Preemergence herbicidal rating SETVI” value (SETVI (Foxtail, Green); rate 0.0625 kg/ha) was 1.0. For the same molecule, the “Preemergence herbicidal rating SETVI” value (SETVI (Foxtail, Green); rate 0.1250 kg/ha) was 6.0, the “Preemergence herbicidal rating SETVI” value (SETVI (Foxtail, Green); rate 0.2500 kg/ha) was 7.0 and the “herbicidal effect rating, MOOVA” value (MOOVA (Monochoria); 0.0313 kg/ha) was 6.0. The “herbicidal effect rating, MOOVA” value (MOOVA (Monochoria); 0.0625 kg/ha) was 7.0, the “herbicidal effect rating, MOOVA” value (MOOVA (Monochoria); 0.1250 kg/ha) was 9.0 and the “herbicidal effect rating, MOOVA” value (MOOVA (Monochoria); 0.2500 kg/ha) was 9.0. For the same molecule, the “Herbicidal rating ABUTH” value (ABUTH (Velvetleaf); rate 0.0156 kg/ha) was 9.0, the “Herbicidal rating ABUTH” value (ABUTH (Velvetleaf); rate 0.0313 kg/ha) was 9.0 and the “Herbicidal rating ABUTH” value (ABUTH (Velvetleaf); rate 0.0625 kg/ha) was 9.0. The “Preemergence herbicidal rating CHEAL” value ([4]; rate 0.0156 kg/ha) was 4.0, the “Preemergence herbicidal rating CHEAL” value ([4]; rate 0.0313 kg/ha) was 3.0 and the “Preemergence herbicidal rating CHEAL” value ([4]; rate 0.0625 kg/ha) was 9.0. For the same molecule, the “Preemergence herbicidal rating CHEAL” value ([4]; rate 0.1250 kg/ha) was 9.0, the “Preemergence herbicidal rating CHEAL” value ([4]; rate 0.2500 kg/ha) was 9.0 and the “herbicidal effect rating, ECHORC” value ([5]; 0.0313 kg/ha) was 9.0. The “herbicidal effect rating, ECHORC” value ([5]; 0.0625 kg/ha) was 9.0, the “herbicidal effect rating, ECHORC” value ([5]; 0.1250 kg/ha) was 9.0 and the “herbicidal effect rating, ECHORC” value ([5]; 0.2500 kg/ha) was 9.0. The “Preemergence herbicidal rating IPOHE” value ([6]; rate 0.0156 kg/ha) was 0.0, the “Preemergence herbicidal rating IPOHE” value ([6]; rate 0.0313 kg/ha) was 0.0 and the “Preemergence herbicidal rating IPOHE” value ([6]; rate 0.0625 kg/ha) was 0.0. The “Preemergence herbicidal rating IPOHE” value ([6]; rate 0.1250 kg/ha) was 9.0 and the “Preemergence herbicidal rating IPOHE” value ([6]; rate 0.2500 kg/ha) was 9.0.
For `Cn1c(C(F)(F)F)cc(=O)n(-c2cc(N=C3SCC(=O)N3Cc3ccccn3)c(Cl)cc2F)c1=O` [Compound 131], the “Preemergence herbicidal rating TRZAWR” value [1, 7] was 0.0, the “Preemergence herbicidal rating TRZAWR” value [1, 8] was 0.0 and the “Preemergence herbicidal rating TRZAWR” value [1, 9] was 0.0. The “Preemergence herbicidal rating TRZAWR” value [1, 10] was 0.0, the “Preemergence herbicidal rating ECHCG” value (ECHCG (Barnyardgrass); [7]) was 0.0 and the “Preemergence herbicidal rating ECHCG” value (ECHCG (Barnyardgrass); [8]) was 0.0. For the same molecule, the “Preemergence herbicidal rating ECHCG” value (ECHCG (Barnyardgrass); [9]) was 0.0, the “Preemergence herbicidal rating ECHCG” value (ECHCG (Barnyardgrass); [10]) was 2.0 and the “Herbicidal rating IPOHE” value ([2]; rate 0.0156 kg/ha) was 7.0. For the same molecule, the “Herbicidal rating IPOHE” value ([2]; rate 0.0313 kg/ha) was 9.0, the “Herbicidal rating IPOHE” value ([2]; rate 0.0625 kg/ha) was 9.0 and the “Preemergence herbicidal rating ORYSAT” value (ORYSAT (Rice, Tebonnet); [7]) was 0.0. For the same molecule, the “Preemergence herbicidal rating ORYSAT” value (ORYSAT (Rice, Tebonnet); [8]) was 0.0, the “Preemergence herbicidal rating ORYSAT” value (ORYSAT (Rice, Tebonnet); [9]) was 0.0 and the “Preemergence herbicidal rating ORYSAT” value (ORYSAT (Rice, Tebonnet); [10]) was 0.0. The “Herbicidal rating TRZAWR” value ([3]; rate 0.0156 kg/ha) was 3.0, the “Herbicidal rating TRZAWR” value ([3]; rate 0.0313 kg/ha) was 3.0 and the “Herbicidal rating TRZAWR” value ([3]; rate 0.0625 kg/ha) was 3.0. The “Preemergence herbicidal rating SETVI” value (SETVI (Foxtail, Green); [7]) was 0.0, the “Preemergence herbicidal rating SETVI” value (SETVI (Foxtail, Green); [8]) was 0.0 and the “Preemergence herbicidal rating SETVI” value (SETVI (Foxtail, Green); [9]) was 0.0. For the same molecule, the “Preemergence herbicidal rating SETVI” value (SETVI (Foxtail, Green); [10]) was 3.0, the “herbicidal effect rating, MOOVA” value (MOOVA (Monochoria); 0.1250 kg/ha) was 0.0 and the “herbicidal effect rating, MOOVA” value (MOOVA (Monochoria); 0.2500 kg/ha) was 2.0. The “Herbicidal rating ABUTH” value (ABUTH (Velvetleaf); rate 0.0156 kg/ha) was 7.0, the “Herbicidal rating ABUTH” value (ABUTH (Velvetleaf); rate 0.0313 kg/ha) was 9.0 and the “Herbicidal rating ABUTH” value (ABUTH (Velvetleaf); rate 0.0625 kg/ha) was 9.0. For the same molecule, the “Preemergence herbicidal rating CHEAL” value [4, 7] was 4.0, the “Preemergence herbicidal rating CHEAL” value [4, 8] was 9.0 and the “Preemergence herbicidal rating CHEAL” value [4, 9] was 9.0. The “Preemergence herbicidal rating CHEAL” value [4, 10] was 9.0, the “herbicidal effect rating, ECHORC” value ([5]; 0.1250 kg/ha) was 2.0 and the “herbicidal effect rating, ECHORC” value ([5]; 0.2500 kg/ha) was 4.0. For the same molecule, the “Preemergence herbicidal rating IPOHE” value [6, 7] was 0.0, the “Preemergence herbicidal rating IPOHE” value [6, 8] was 0.0 and the “Preemergence herbicidal rating IPOHE” value [6, 9] was 0.0. The “Preemergence herbicidal rating IPOHE” value [6, 10] was 0.0.
